What is called MIC is the smallest concentration in the dilution series that meets the test's criterion for growth inhibition.

Read-outs that look alike come from different tables or passages of the source.

The text below walks through data of patent US20230364065A1, “ANTIBIOTIC COMBINATION THERAPIES” (BIOVERSYS AG, priority 2022, published 2023).

Assay [1] has as its system carbapenem-resistant Acinetobacter baumannii (CRAB). As to conditions: MHA/PIH, cited from earlier work.
Assay [2] has as its system A. baumannii Pop1 and Pop2 strains. The assay is described as follows: Time kill curves in CAMHB with 0.1 mM PIH. Format: cell-based, Acinetobacter baumannii. The procedure:
Based on the data of EXAMPLE 1, the bactericidal activity and the resistance development of rifabutin and of fixed rifabutin/polymyxin concentrations was assessed in time-kill curve experiments. […] FIGS. 3 and 4 show kill curve experiments on two different A. baumannii strains (Pop 1 and Pop2) having very different rifabutin MICs.
Based on the data of EXAMPLE 2, the bactericidal activity and the resistance development of rifabutin/polymyxin B was assessed in time kill curve experiments using a lower concentration of rifabutin and additional strains. Concentrations were fixed at 0.03 mg/L for rifabutin (on average, one thirty-second the rifabutin MIC90), and at 0.125 or 0.06 mg/L for polymyxin B (one fourth and one eighth the fCtrough of polymyxin B).
Time-kill kinetics were performed in CAMHB supplemented with 0.1 mM PIH medium. Rifabutin was tested at 0.25 mg/L with or without the specified concentration of a polymyxin agent. Samples were taken at 0, 2, 4, 8 and 24 hours in order to determine the colony forming units (cfu). Bactericidal activity is defined as ≥3-log reduction in cfu compared to the cfu present in the inoculum (0 hours).

Assay [3] has the same test system. The assay is described as follows: Rifabutin MIC of the strains used for time-kill curves. Format: cell-based. As to conditions: Acinetobacter baumannii.
The test system of assay [4] is A. baumannii clinical isolates. The assay is described as follows: Rifabutin MIC with a fixed polymyxin concentration, broth microdilution in CAMHB/PIH. The class given is cell-based, Acinetobacter baumannii. Here is the method:
(§1) The MIC90 (the maximum Minimal Inhibitory Concentration which inhibits growth of 90% of the strains of a test panel) of rifabutin is 2 or 1 mg/L when tested respectively in RPMI/FCS for broth microdilution or MHA/PIH for agar dilution against a panel of 293 carbapenem-resistant Acinetobacter baumannii (CRAB) (Trebosc V, et al. 2020. In vitro activity of rifabutin against 293 contemporary carbapenem-resistant Acinetobacter baumannii clinical isolates and characterization of rifabutin mode of action and resistance mechanisms. J Antimicrob Chemother. 75(12):3552-3562, incorporated herein by reference). […] At these respective polymyxin concentrations, no strains, 3% of the strains, and <5% of the strains would be susceptible to the respective polymyxin. FIG. 1 illustrates the cumulative index and MIC50 and MIC90 of rifabutin in the presence of members of the polymyxin family of antibiotics at sub MIC (sub trough concentrations) showing the synergistic effect discussed above.
(§2) In vitro activity of rifabutin against 293 contemporary carbapenem-resistant Acinetobacter baumannii clinical isolates and characterization of rifabutin mode of action and resistance mechanisms. J Antimicrob Chemother. 75(12):3552-3562, incorporated herein by reference in its entirety). […] FIG. 2 illustrates the MIC distribution of rifabutin in the presence of members of the polymyxin family of antibiotics at sub MIC (sub trough concentrations) showing the synergistic effect discussed above.
The rifabutin MICs in combination with a fixed concentration of the specified polymyxin were determined by broth microdilution method according to the CLSI guideline. The medium used to determine the MICs was cation-adjusted Muller Hinton broth (CAMHB) supplemented with 0.1 mM of pyridoxal isonicotinoyl hydrazone (PIH). […] Accordingly, the MIC values were set at the first lowest rifabutin concentration preventing growth as assessed by visual inspection of the assay plate.
(Broth dilution looks for growth in wells or tubes with falling amounts of substance.)

The test system of assay [5] is carbapenem-resistant Acinetobacter baumannii (CRAB). As to conditions: RPMI/FCS, broth microdilution, panel of 293 CRAB; cited from earlier work.
In assay [6] the test system is A. baumannii clinical isolates. The assay is described as follows: Susceptibility of panel strains to the polymyxin alone. As to conditions: for number of strains with MIC>2 mg/L towards the polymyxin: polymyxin alone; for strains susceptible to the polymyxin at the fixed concentration: polymyxin alone at 0.125 mg/L. The class given is cell-based, Acinetobacter baumannii. The procedure:
as §1, §2

The mark [7] stands for this setting: Example 2, colistin or polymyxin B alone at 0.125 or 0.03 mg/L, Pop 1 and Pop2 strains.

For `CO[C@H]1/C=C/O[C@@]2(C)Oc3c(C)c(O)c4c(c3C2=O)C2=NC3(CCN(CC(C)C)CC3)NC2=C(NC(=O)/C(C)=C\C=C\[C@H](C)[C@H](O)[C@@H](C)[C@@H](O)[C@@H](C)[C@H](OC(C)=O)[C@@H]1C)C4=O` [rifabutin, Rifabutin], in assay [1] (293 CRAB), the “strains in population 1 (rifabutin MICs<0.125 mg/L)” value is listed as 72%. In addition, in assay [1] (293 CRAB), the “strains in population 2 (rifabutin MICs≥0.125 to <16 mg/L)” value was 27%. Further, the “strains in population 3 (rifabutin MICs≥16 mg/L)” value in assay [1] (293 CRAB) is reported as 1%. Moreover, the MIC90 of rifabutin in assay [1] (agar dilution, panel of 293 CRAB) is 1 µg/mL; in assay [5] it was 2 µg/mL. Besides, the “bactericidal activity in time-kill curves” value (“bactericidal activity” for short) in assay [2] (Example 2, rifabutin alone at 0.25 mg/L, Pop 1 and Pop2 strains) is recorded as “either poorly bactericidal or allow for regrowth”; in assay [2] (Example 3, rifabutin alone at 0.03 mg/L, Pop1 and Pop2 strains), “either poorly bactericidal or allowed for regrowth”. In addition, the MIC in assay [3] (A. baumannii Pop 1 strain of FIG. 3) turned out to be 0.016 µg/mL; in assay [3] (A. baumannii Pop2 strain of FIG. 4), 1 µg/mL; in assay [3] (ATCC17978, Pop 1 strain ATCC 17978) it was 0.008 µg/mL; in assay [3] (Pop 1 strain HUMC1), 0.002 µg/mL; in assay [3] (Pop2 strain LAC-4), 1 µg/mL; in assay [3] (Pop2 strain UNT238-1) it was 2 µg/mL. The “strains having a rifabutin MIC≤1 mg/L in the presence of a polymyxin” value in assay [4] (CAMHB/PIH broth microdilution, about one-quarter of the fCtrough of the polymyxin) is listed as 99%. Besides, the “MIC90 of rifabutin in the presence of a polymyxin” value in assay [4] (CAMHB/PIH broth microdilution, with 0.125 mg/L polymyxin B, 0.125 mg/L colistin or 0.03 mg/L SPR206 (about one-quarter of fCtrough)) lay within 0.06 to 0.25 µg/mL. Further, the “fold lowering of rifabutin MIC90 in the presence of a polymyxin” value in assay [4] (subinhibitory concentrations of a polymyxin antibiotic) is recorded as “up to 32 fold”.
Take colistin sulfate: the “bactericidal activity” value in assay [2] (setting [7]) was “either poorly bactericidal or allow for regrowth”. In addition, in assay [6], the “number of strains with MIC>2 mg/L towards the polymyxin” value (“number of strains” for short) turned out to be 45 strains and the “strains susceptible to the polymyxin at the fixed concentration” value worked out at 3%.
Turning to polymyxin B sulfate, the “bactericidal activity” value is given as “either poorly bactericidal or allow for regrowth” in assay [2] (setting [7]); “either poorly bactericidal or allowed for regrowth” in assay [2] (Example 3, polymyxin B alone at 0.125 or 0.06 mg/L, Pop1 and Pop2 strains). Besides, in assay [6], the “number of strains” value stood at 40 strains. The “strains susceptible to the polymyxin at the fixed concentration” value in assay [6] is given as “no strains”.
As to SPR206 acetate, in assay [2] (Example 2, SPR206 alone at 0.03 mg/L, Pop 1 and Pop2 strains), the “bactericidal activity” value is listed as “either poorly bactericidal or allow for regrowth”. Moreover, the “number of strains” value in assay [6] is on record as 18 strains.
